Format in all cases: ADME, organism-based
Data set [1] in a line: Volume of distribution at steady state in Sprague-Dawley rat at 2 mg/kg, iv. More on the design: dose 2 mg/kg, route intravenous. As to conditions: in vivo, read-out: Vdss.
Data set [2] in a line: AUC (0 to infinity) in Sprague-Dawley rat at 10 mg/kg, po. Details: time infinity, dose 10 mg/kg, route oral. Particulars: plasma.
Data set [3] can be described thus: Half life in Sprague-Dawley rat at 2 mg/kg, iv. More on the design: dose 2 mg/kg, route intravenous. As to conditions: in vivo.
The nature of data set [4]: Oral bioavailability in Sprague-Dawley rat at 10 mg/kg. As to conditions: in vivo.
The nature of data set [5]: Clearance in Sprague-Dawley rat. As to conditions: in vivo.

Regarding `CC(=O)N1CCC(c2nc3ccccc3nc2OC2CN(c3ccc4ccccc4n3)C2)CC1`, in data set [1], the Vd is 1.55 L/kg. Moreover, the AUC(0-inf) in data set [2] came to 27.9 ng·h/mL. In data set [3], this compound showed a half-life of 2.35 h. In addition, the bioavailability in data set [4] turned out to be 57%. This compound gave a clearance in data set [5] of 9.5 mL/min/kg.

Take `OCC1CCN(c2nccnc2OC2CN(c3ccc4ccccc4n3)C2)CC1`: the Vd in data set [1] was 4.81 L/kg. Besides, the half-life in data set [3] was 6.42 h. The compound further came in with a bioavailability in data set [4] of 18%. Further, the clearance in data set [5] is 61.3 mL/min/kg.

For `CC(=O)N1CCC(c2nccnc2OC2CN(c3ccc4ccccc4n3)C2)CC1`, the Vd in data set [1] is 1.55 L/kg. In addition, the AUC(0-inf) in data set [2] stood at 17.4 ng·h/mL. This compound also showed a half-life in data set [3] of 3.64 h. The bioavailability in data set [4] was 62%. Besides, the clearance in data set [5] is 16 mL/min/kg.
